Measured values published in patent publication US10323027B2, “2,3-dihydro-4H-1,3-benzoxazin-4-one derivatives as modulators of cholinergic muscarinic M1 receptor” (Takeda Pharmaceutical Company Limited, priority 2015, dated 2019).
Where a name gives a salt, the structure may show the parent alone.

Target: T1, human M1 receptor (hCHRM1) (Homo sapiens, UniProt P11229)
T1 construct: expressed in transfected cells
T1 sequence (P11229 1-460): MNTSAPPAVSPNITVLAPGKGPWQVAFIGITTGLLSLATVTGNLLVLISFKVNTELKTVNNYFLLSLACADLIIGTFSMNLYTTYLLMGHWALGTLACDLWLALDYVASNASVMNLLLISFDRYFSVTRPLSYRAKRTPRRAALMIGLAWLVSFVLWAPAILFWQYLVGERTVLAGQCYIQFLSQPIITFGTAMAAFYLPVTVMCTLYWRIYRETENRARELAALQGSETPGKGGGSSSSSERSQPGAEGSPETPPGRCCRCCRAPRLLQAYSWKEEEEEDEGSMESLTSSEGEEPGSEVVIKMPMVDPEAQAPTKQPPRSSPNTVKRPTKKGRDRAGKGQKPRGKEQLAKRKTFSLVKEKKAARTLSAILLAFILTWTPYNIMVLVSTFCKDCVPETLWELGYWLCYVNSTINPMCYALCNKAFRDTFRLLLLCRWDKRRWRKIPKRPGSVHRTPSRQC
Experiment: Measurement of M1 receptor positive allosteric modulator (M1PAM) activity, Ca2+ fluorescence by FLIPRtetra (Experimental Example 1)
Type: cell-based
Conditions: for activity (%) at 10 μM: 10 μM test compound, 100% = acetylcholine 1 μM, 0% = DMSO; for EC50: inflection point of concentration-dependent curve, in presence of acetylcholine at EC20 (0.8-1.0 nM), CHO-K1 cells expressing hCHRM1, read-out: IP value
Protocol: Measurement of M1 Receptor Positive Allosteric Modulator (M1PAM) Activity
The activity of a test compound in the presence of acetylcholine at EC20 concentration (final concentration 0.8-1.0 nM), which affords an action corresponding to about 20% of the maximum activity, was measured as PAM activity. The method is as follows. CHO-K1 cells stably expressing a human M1 receptor (hCHRM1) were plated on a 384-well black clear bottom plate (BD Falcon) at 5,000 cells/well, and cultured in an incubator at 37° C., 5% CO2 for 1 day. The medium in the cell plate was removed, and a dye solution (prepared by adding Recording medium (DOJINDO LABORATORIES) to a final concentration of 1×concentration, Fluo-4 AM (DOJINDO LABORATORIES) to a final concentration of 2.5 μg/mL, Pluronic F127 (DOJINDO LABORATORIES) to a final concentration of 0.08%, and probenecid (DOJINDO LABORATORIES) to a final concentration of 1.25 mM to assay buffer (HBSS (Invitrogen), 20 mM HEPES (Invitrogen), 0.1% BSA (Wako Pure Chemical Industries, Ltd.))) was added at 30 μL/well. The cells were left standing in the incubator at 37° C., 5% CO2 for 30 min, and further left standing at room temperature for 30 min. A test compound prepared by diluting with assay buffer containing 3.2-4.0 nM acetylcholine was added at 10 μL/well, and the fluorescence was measured by FLIPRtetra (Molecular Devices) for 1 min every 1 second. With the definition that the amount of change in the fluorescence on addition of acetylcholine (final concentration 1 μM) is 100% and that on addition of DMSO instead of a test compound is 0%, the activity (%) of the test compound was calculated, and the inflection point in the concentration-dependent curve of the test compound was calculated as IP values.

Structure (SMILES)	activity (%) at 10 μM [%]	EC50 [nM]
COc1ccc(Cc2cc3c(c(C)c2C)OCN([C@H]2COCC[C@@H]2O)C3=O)cc1 (single isomer, unassigned) [Example 17, 1,5-anhydro-2,4-dideoxy-2-(6-(4-methoxybenzyl)-7,8-dimethyl-4-oxo-2H-1,3-benzoxazin-3(4H)-yl)-threo-pentitol (optical isomer)]	112	27
COc1c(Cc2ccc(-n3cccn3)nc2)cc2c(c1F)OCN([C@H]1CCC[C@@H]1O)C2=O (single isomer, unassigned) [Example 55, 8-fluoro-3-(trans-2-hydroxycyclopentyl)-7-methoxy-6-((6-(1H-pyrazol-1-yl)pyridin-3-yl)methyl)-2,3-dihydro-4H-1,3-benzoxazin-4-one (optical isomer)]	98	14
Cc1c(Cc2ccc(Cl)nc2)cc2c(c1C)OCN([C@H]1CCC[C@@H]1O)C2=O [Example 8, 6-((6-chloropyridin-3-yl)methyl)-3-((1S,2S)-2-hydroxycyclopentyl)-7,8-dimethyl-2,3-dihydro-4H-1,3-benzoxazin-4-one]	105	9.6
Cc1c(Cc2ccc(Cl)nc2)cc2c(c1C)OCN([C@H]1COCC[C@@H]1O)C2=O [Example 10, 1,5-anhydro-2-(6-((6-chloropyridin-3-yl)methyl)-7,8-dimethyl-4-oxo-2H-1,3-benzoxazin-3(4H)-yl)-2,4-dideoxy-L-threo-pentitol]	109	9.1

Compounds with a lower EC50, results first:

activity (%) at 10 μM [%]	EC50 [nM]	Structure (SMILES)
108	7.9	Cc1ccc(Cc2cc3c(c(C)c2C)OCN([C@H]2COCC[C@@H]2O)C3=O)cn1 (single isomer, unassigned) [Example 7, 1,5-anhydro-2,4-dideoxy-2-(7,8-dimethyl-6-((6-methylpyridin-3-yl)methyl)-4-oxo-2H-1,3-benzoxazin-3(4H)-yl)-threo-pentitol monohydrochloride (optical isomer)]
96	1.8	Cc1c(Cc2ccc(-n3cccn3)cc2)cc2c(c1F)OCN([C@H]1COCC[C@@H]1O)C2=O [Example 1, 8-fluoro-3-((3S,4S)-4-hydroxytetrahydro-2H-pyran-3-yl)-7-methyl-6-(4-(1H-pyrazol-1-yl)benzyl)-2,3-dihydro-4H-1,3-benzoxazin-4-one]
106	2.5	Cc1ccc(Cc2cc3c(c(Cl)c2C)OCN([C@H]2CCCC[C@@H]2O)C3=O)cn1 [Example 2, 8-chloro-3-((1S,2S)-2-hydroxycyclohexyl)-7-methyl-6-((6-methylpyridin-3-yl)methyl)-2,3-dihydro-4H-1,3-benzoxazin-4-one]
109	3.2	O=C1c2cc(Cc3ccc(Cl)nc3)c3ccccc3c2OCN1[C@H]1COCC[C@@H]1O [Example 4, 1,5-anhydro-2-(6-((6-chloropyridin-3-yl)methyl)-4-oxo-2H-naphtho[2,1-e][1,3]oxazin-3(4H)-yl)-2,4-dideoxy-L-threo-pentitol]
104	8.5	Cc1c(Cc2ccc(-n3cccn3)cc2)cc2c(c1F)OCN([C@H]1CCC[C@@H]1O)C2=O [Example 5, 8-fluoro-3-((1S,2S)-2-hydroxycyclopentyl)-7-methyl-6-(4-(1H-pyrazol-1-yl)benzyl)-2,3-dihydro-4H-1,3-benzoxazin-4-one]
102	7	Cc1ccc(Cc2cc3c(c(Cl)c2C)OCN([C@H]2COCC[C@@H]2O)C3=O)cn1 [Example 6, 1,5-anhydro-2-(8-chloro-7-methyl-6-((6-methylpyridin-3-yl)methyl)-4-oxo-2H-1,3-benzoxazin-3(4H)-yl)-2,4-dideoxy-L-threo-pentitol]
98	4.6	Cc1c(Cc2ccc(-c3ccn(C)n3)cc2)cc2c(c1F)OCN([C@H]1CCC[C@@H]1O)C2=O [Example 9, 8-fluoro-3-((1S,2S)-2-hydroxycyclopentyl)-7-methyl-6-(4-(1-methyl-1H-pyrazol-3-yl)benzyl)-2,3-dihydro-4H-1,3-benzoxazin-4-one]
